Values of other authors in US20240350409A1, “TRANSDERMAL DELIVERY FORMULATIONS AND METHODS FOR THE MANUFACTURE THEREOF” (LifeActive, Inc., priority 2023, published 2024).

Settings: in H2O at ~15-20° C.; weak organic acids

Row | Substance | pKa3 | pKa2
1 | Citric Acid | 6.40 | –
2 | Maleic Acid | – | 6.07
